Measurements published in patent publication US20170056351A1, “COMPOSITION FOR INDUCING TUMOR IMMUNITY” (UNIVERSITY OF OCCUPATIONAL AND ENVIRONMENTAL HEALTH, JAPAN, priority 2014, published 2017).

Legend:
9L cells = assay: Cellular ROS levels after ionizing irradiation (DCFD, flow cytometry), 9L; assay type: cell-based, rat; settings: for relative MFI of DCF fluorescence 12 hours after ionizing irradiation, timing study: 10 Gy
Procedure: Intracellular ROS production was evaluated using the oxidant-sensitive fluorescence probe DCFD and flow cytometry (Yamamori T, Yasui H, Yamazumi M, et al: Ionizing radiation induces mitochondrial reactive oxygen species production accompanied by upregulation of mitochondrial electron transport chain function and mitochondrial content under control of the cell cycle checkpoint. Free Radic Biol Med 53: 260-270, 2012.). The cells were seeded on a 100-mm culture dish, and using an X-ray irradiation apparatus (MBR-1520R; Hitachi, Tokyo, Japan) (0.67 Gy/min), the cells were then irradiated with a radiation of 10 Gy in a dark room. During the ionizing irradiation, the culture dish was maintained at a room temperature in a dark container. In the case of a 5-ALA and ionizing irradiation group (RT,12 h+ALA), the cells were treated with 1 mM 5-ALA for 4 hours, then, immediately after the treatment, the cells were irradiated with ionizing radiation, and were then incubated together with 10 μM DCFD at 37° C. for 15 minutes, followed by washing with PBS twice. Thereafter, as described above, the cells were analyzed using a flow cytometer (excitation: 488 nm; radiation: 525/50 nm band-pass filter). Control cells were not exposed to ionizing radiation or 5-ALA. In a 5-ALA group, the cells were treated with 1 mM 5-ALA for 4 hours, but were not exposed to ionizing radiation. The control cells and the cells of the 5-ALA group were treated with DCFD in the same manner as described above. In order to prevent the photoactivation of 5-ALA-induced PpIX and DCFD, all procedures were carried out in a dark room. The flow cytometric data were analyzed using FlowJo (Tree Star Inc., Ashland, Oreg., USA). The MFI of the DCF fluorescence in the cells, with respect to that in control cells, was calculated for each cell line.
The cells were seeded on a 100-mm culture dish, and were then exposed to an ionizing radiation of 10 Gy. The incubation time (4 h) of 1 mM 5-ALA was the same among individual groups, and three types of 5-ALA treatment times were initiated: i) 5-ALA treatment immediately before ionizing irradiation [RT+ALA (pre) group]; ii) 5-ALA treatment immediately after ionizing irradiation [RT+ALA (4 h) group]; and iii) 5-ALA treatment 8 hours after ionizing irradiation [RT+ALA (12 h) group]. In each group, twelve hours after the ionizing irradiation, the cells were incubated together with 10 μM DCFD at 37° C. for 15 minutes, and were then washed with PBS twice. Immediately after the washing, as described above, DCF fluorescence was analyzed using a flow cytometer. Control cells were not treated with ionizing radiation or 5-ALA. In a group involving only ionizing irradiation (RT), the cells were exposed to ionizing radiation, without performing 5-ALA treatments, and were then treated with DCFD twelve hours after the exposure to the ionizing radiation in the same manner as described above. All procedures were carried out in a dark room. The flow cytometric data were analyzed using FlowJo software. The MFI of the DCF fluorescence in the cells, with respect to that in control cells, was calculated for each cell line.

T98G cells = assay: Intracellular level of 5-ALA-induced PpIX by flow cytometric analysis, T98G; assay type: cell-based, human; settings: 1 mM 5-ALA for 4 hours, relative to 5-ALA-not-treated cells, average±SE
Procedure: Two types of rat glioma cell lines (9L and C6) and human glioma cell lines (U251 and T98G) were used. Before use, 9L and T98G were cultured in RPMI-1640 at 37° C. for several days, whereas C6 and U251 were cultured in 10% FBS-added Dulbecco's modified Eagle's medium (DMEM) at 37° C. for several days. These cell lines were maintained at 37° C. in 5% CO2 in a humidified incubator. The cells were subcultured at an exponential growth phase thereof, using 0.05% trypsin solution containing 0.5 mM ethylenediamine tetraacetate. 70% confluent cells were used in the subsequent experiments. […]
The cells were seeded on a 100-mm culture dish, and were then cultured. […] Immediately after the recovery, the cells were re-suspended in cold PBS/FBS, and were then analyzed using a flow cytometer (EC800; Sony Biotechnology, Tokyo, Japan). Generally, 30,000 cells contained in each sample were evaluated. Using 488-nm argon ion laser, fluorescence was excited from intracellular PpIX, and the fluorescence was then detected using a 640/30 nm band-pass filter. […] The flow cytometric data were analyzed using FlowJo (Tree Star Inc., Ashland, Oreg., USA). The mean fluorescence intensity (MFI) of PpIX fluorescence in the 5-ALA-treated cells, with respect to that of 5-ALA-not-treated cells, was calculated for each cell line.

[1] = living body; cited from earlier work

NCC(=O)CCC(=O)O [ALA, 5-aminolevulinic acid]
relative MFI of DCF fluorescence (cellular ROS) (9L cells; 1 mM 5-ALA 4 hours, without ionizing irradiation, relative to control cells, average±SE): 1.19±0.07
relative MFI of DCF fluorescence 12 hours after ionizing irradiation, timing study (9L cells; 5-ALA treatment 8 hours after ionizing irradiation, RT+ALA (12 h) group): 1.58±0.11
relative MFI of DCF fluorescence 12 hours after ionizing irradiation, timing study (9L cells; 5-ALA treatment immediately after ionizing irradiation, RT+ALA (4 h) group): 1.57±0.05
relative MFI of DCF fluorescence 12 hours after ionizing irradiation, timing study (9L cells; 5-ALA treatment immediately before ionizing irradiation, RT+ALA (pre) group): 1.93±0.10
relative MFI of DCF fluorescence (cellular ROS) (9L cells; 12 hours after 10 Gy ionizing irradiation with 5-ALA pre-treatment (1 mM, 4 hours), p=0.009 vs RT 12 h): 1.91±0.19
relative MFI of PpIX fluorescence (T98G cells): 15.3±0.89
time until ALA is metabolized and discharged from the body [1]: ≤ 48 h
